# Experiments:
# Experiment in all cases: Cell proliferation assay (CellTiter-Glo, 72 hours)
# BaF3 KIF5B-RET = target: T1, BaF3 KIF5B-RET (Homo sapiens, UniProt P07949); assay type: cell-based; conditions: anti-cell proliferation, read-out: BaF3 KIF5B-RET IC50
# T1 construct: fused on or other part: P33176 (Kinesin-1 heavy chain)
# From the text: (§1) The KIF5B-RET gene was synthesized at GenScript and cloned into pCDH-CMV-MCS-EF1-Puro plasmid (System Biosciences, Inc). KIF5B-RET point mutation V804M was generated at GenScript by PCR and confirmed by sequencing. Ba/F3-KIF5B-RET wild type and mutant were generated by transducing Ba/F3 cells with lentivirus containing KIF5B-RET wide type or mutant. Stable cell lines were selected by puromycin treatment, followed by IL-3 withdrawal. Briefly, 5×10^6 Ba/F3 cells were transduced with lentivirus supernatant in the presence of 8 μg/mL protamine sulfate. The transduced cells were subsequently selected with 1 µg/mL puromycin in the presence of IL3-containing medium RPMI1640, plus 10% FBS. After 10-12 days of selection, the surviving cells were further selected for IL3 independent growth.
# (§2) Two thousand cells per well were seeded in 384 well white plate for 24 hrs, and then treated with compounds for 72 hours (37° C., 5% CO2). Cell proliferation was measured using CellTiter-Glo luciferase-based ATP detection assay (Promega) following the manufactures's protocol. IC50 determinations were performed using GraphPad Prism software (GraphPad, Inc., San Diego, Calif.).
# BaF3 KIF5B-RET_V804M = target: T2, BaF3 KIF5B-RET_V804M (Homo sapiens, UniProt P07949, V804M, cells depend on it); assay type: cell-based; conditions: anti-cell proliferation, read-out: BaF3 KIF5B-RET_V804M IC50
# T2 construct: fused on or other part: P33176 (Kinesin-1 heavy chain)
# T2 sequence (P07949 whole entry V804M, the tested form may be a part): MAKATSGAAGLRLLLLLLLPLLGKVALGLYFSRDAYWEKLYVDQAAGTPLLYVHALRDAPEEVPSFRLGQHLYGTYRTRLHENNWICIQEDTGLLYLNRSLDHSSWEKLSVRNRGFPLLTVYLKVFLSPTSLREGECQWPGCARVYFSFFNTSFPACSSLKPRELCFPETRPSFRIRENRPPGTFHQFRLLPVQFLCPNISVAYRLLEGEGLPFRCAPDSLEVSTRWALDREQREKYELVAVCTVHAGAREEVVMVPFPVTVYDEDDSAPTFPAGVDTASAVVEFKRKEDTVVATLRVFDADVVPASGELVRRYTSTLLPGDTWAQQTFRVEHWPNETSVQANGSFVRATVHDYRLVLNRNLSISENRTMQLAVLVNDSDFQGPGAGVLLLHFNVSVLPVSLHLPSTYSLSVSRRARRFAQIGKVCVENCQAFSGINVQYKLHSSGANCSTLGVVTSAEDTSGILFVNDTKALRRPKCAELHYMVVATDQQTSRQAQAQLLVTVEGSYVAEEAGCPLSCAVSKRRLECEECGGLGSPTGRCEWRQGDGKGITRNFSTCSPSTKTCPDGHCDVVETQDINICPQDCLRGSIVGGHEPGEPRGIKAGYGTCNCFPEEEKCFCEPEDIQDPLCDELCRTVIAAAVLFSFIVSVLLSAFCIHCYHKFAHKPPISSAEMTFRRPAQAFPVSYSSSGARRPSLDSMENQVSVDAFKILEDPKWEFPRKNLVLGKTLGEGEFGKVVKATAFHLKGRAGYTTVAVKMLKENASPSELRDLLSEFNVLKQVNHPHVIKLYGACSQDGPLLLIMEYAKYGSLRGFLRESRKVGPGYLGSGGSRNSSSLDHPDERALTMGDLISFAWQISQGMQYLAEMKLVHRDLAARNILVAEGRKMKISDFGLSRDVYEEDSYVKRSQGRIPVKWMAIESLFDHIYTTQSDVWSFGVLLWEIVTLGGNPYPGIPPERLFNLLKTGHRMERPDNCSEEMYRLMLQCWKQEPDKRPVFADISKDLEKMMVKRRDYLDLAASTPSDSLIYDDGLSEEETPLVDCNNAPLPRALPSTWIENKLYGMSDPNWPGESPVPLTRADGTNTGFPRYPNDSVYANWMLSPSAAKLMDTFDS
# From the text: as §1, §2
# BaF3 KIF5B-RET_G810R = target: T3, BaF3 KIF5B-RET_G810R (Homo sapiens, UniProt P07949, G810R, cells depend on it); assay type: cell-based; conditions: anti-cell proliferation, read-out: BaF3 KIF5B-RET_G810R IC50
# T3 construct: fused on or other part: P33176 (Kinesin-1 heavy chain)
# T3 sequence (P07949 whole entry G810R, the tested form may be a part): as the sequence (P07949 whole entry V804M, the tested form may be a part) above, with M804V, G810R counted along it
# From the text: [The source words this procedure for another variant and reports this variant under the same test.] as §1, §2
# KM12 cell (TPM3-TRKA) = assay type: cell-based, human; conditions: Homo sapiens, KM12, anti-cell proliferation
# Description: (§3) Human medulla thyroid carcinoma cell line TT (containing RET […] mutation) and acute myelogenous cell line KG-1 were purchased from ATCC. Human colon cancer cell line KMI2 (containing TPM3-TRKA) was obtained from NCI.
# as §2
# KG-1 = assay type: cell-based, human; conditions: Homo sapiens, KG-1, anti-cell proliferation
# Description: as §3, §2
# BaF3 EML4-ALK = target: T4, BaF3 EML4-ALK (Homo sapiens, UniProt Q9UM73); assay type: cell-based; conditions: anti-cell proliferation
# T4 construct: The EML4-ALK gene (variant 1) was synthesized at GenScript and cloned into pCDH-CMV-MCS-EF1-Puro plasmid (System Biosciences, Inc); fused on or other part: Q9HC35 (Echinoderm microtubule-associated protein-like 4)
# T4 sequence (Q9UM73 whole entry, change not shown, the tested form may be a part): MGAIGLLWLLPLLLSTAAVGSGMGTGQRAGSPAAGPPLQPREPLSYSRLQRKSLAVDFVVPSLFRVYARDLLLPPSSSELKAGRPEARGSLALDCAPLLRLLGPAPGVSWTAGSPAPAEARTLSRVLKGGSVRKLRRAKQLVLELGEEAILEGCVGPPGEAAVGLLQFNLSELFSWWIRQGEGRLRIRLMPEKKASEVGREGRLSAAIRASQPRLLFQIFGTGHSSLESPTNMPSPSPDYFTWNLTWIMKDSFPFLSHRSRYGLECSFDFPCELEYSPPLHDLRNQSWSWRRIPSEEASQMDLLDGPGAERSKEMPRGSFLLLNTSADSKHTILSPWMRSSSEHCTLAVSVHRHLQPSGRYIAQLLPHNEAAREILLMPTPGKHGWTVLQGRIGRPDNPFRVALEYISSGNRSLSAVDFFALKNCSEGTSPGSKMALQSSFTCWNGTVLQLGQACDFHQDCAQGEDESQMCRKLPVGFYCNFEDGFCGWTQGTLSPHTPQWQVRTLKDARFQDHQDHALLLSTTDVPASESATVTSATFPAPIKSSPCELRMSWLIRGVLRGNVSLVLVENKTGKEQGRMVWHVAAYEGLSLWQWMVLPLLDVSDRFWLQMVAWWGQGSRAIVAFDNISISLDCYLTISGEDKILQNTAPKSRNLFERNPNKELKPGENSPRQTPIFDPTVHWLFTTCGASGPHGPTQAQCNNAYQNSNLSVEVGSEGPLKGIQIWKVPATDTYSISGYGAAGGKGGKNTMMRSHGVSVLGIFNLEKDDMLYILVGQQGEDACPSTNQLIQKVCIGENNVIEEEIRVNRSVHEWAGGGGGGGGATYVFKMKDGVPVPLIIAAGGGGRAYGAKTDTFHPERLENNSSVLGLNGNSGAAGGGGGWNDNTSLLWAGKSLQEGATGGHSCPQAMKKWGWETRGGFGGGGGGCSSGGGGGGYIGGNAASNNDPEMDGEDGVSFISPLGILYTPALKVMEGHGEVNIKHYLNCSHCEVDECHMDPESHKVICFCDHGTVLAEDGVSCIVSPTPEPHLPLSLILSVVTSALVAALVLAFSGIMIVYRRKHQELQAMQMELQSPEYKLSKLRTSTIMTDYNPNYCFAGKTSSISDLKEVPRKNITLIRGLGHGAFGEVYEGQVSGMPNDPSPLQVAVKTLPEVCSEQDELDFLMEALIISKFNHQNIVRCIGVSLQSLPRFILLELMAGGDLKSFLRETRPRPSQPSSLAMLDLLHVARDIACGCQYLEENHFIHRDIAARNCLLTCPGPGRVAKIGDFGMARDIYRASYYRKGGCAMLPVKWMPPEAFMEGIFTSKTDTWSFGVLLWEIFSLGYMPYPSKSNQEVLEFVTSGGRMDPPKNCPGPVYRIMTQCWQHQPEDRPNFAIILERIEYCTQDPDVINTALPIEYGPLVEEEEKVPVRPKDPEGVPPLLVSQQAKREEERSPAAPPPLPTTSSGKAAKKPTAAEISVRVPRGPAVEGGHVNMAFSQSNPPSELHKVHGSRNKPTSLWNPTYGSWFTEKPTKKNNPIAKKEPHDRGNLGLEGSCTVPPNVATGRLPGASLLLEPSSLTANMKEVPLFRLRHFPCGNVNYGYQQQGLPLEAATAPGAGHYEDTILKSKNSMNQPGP
# Description: The EML4-ALK gene (variant 1) was synthesized at GenScript and cloned into pCDH-CMV-MCS-EF1-Puro plasmid (System Biosciences, Inc). Ba/F3-EML4-ALK wild type were generated by transducing Ba/F3 cells with lentivirus containing EML4-ALK wide type. Stable cell lines were selected by puromycin treatment, followed by IL-3 withdrawal. Briefly, 5×10^6 Ba/F3 cells were transduced with lentivirus supernatant in the presence of 8 μg/mL protamine sulfate. The transduced cells were subsequently selected with 1 μg/mL puromycin in the presence of IL3-containing medium RPMI1640, plus 10% FBS. After 10-12 days of selection, the surviving cells were further selected for IL3 independent growth.
# as §2
# T1 sequence (P07949 whole entry, change not shown, the tested form may be a part): as the sequence (P07949 whole entry V804M, the tested form may be a part) above, with M804V counted along it
Structure (SMILES),GI50 (BaF3 KIF5B-RET) [nM],GI50 (BaF3 KIF5B-RET_V804M) [nM],GI50 (BaF3 KIF5B-RET_G810R) [nM],GI50 (BaF3 EML4-ALK) [nM],IC50 (KM12 cell (TPM3-TRKA)) [nM],IC50 (KG-1) [nM]
"CC1(C)COc2ncc(F)cc2CN2c3nc4c(cnn4cc3O[C@H]3CCC[C@H]32)C(=O)N1 [Compound 21, (3aR,20aS)-7-fluoro-12,12-dimethyl-2,3,3a,12,13,20a-hexahydro-1H,5H-17,19-(metheno)cyclopenta[5,6] [1,4]oxazino[3,4-i]pyrazolo[4,3-f]pyrido [3,2-l][1,4,8,10]oxatriazacyclotridecin-14(11H)-one]",< 0.2,3460,82,462,13.8,86.9
O=C1NC2(CCC2)CCOc2ncc(F)cc2CN2c3nc4c1cnn4cc3O[C@H]1CCC[C@H]12 [Compound 45],526,5000,1710,3110,202,1130
"C[C@H]1CCNC(=O)c2cnn3cc4c(nc23)N(Cc2cc(F)cnc2O1)[C@@H]1CCC[C@@H]1O4 [Compound 15, (3aR,11S,21aS)-7-fluoro-11-methyl-2,3,3a,12,13,14,21a-octahydro-1H,5H, 15H-18,20-(metheno)cyclopenta[5,6] [1,4]oxazino[4,3-e]pyrazolo[3,4-h]pyrido [2,3-b][1,5,7,11]oxatriazacyclotetradecin-15-one]",1.1,1240,8.7,364,5.1,5.2
"C[C@@H]1CCOc2ncc(F)cc2CN2c3nc4c(cnn4cc3O[C@H]3CCC[C@H]32)C(=O)N1 [Compound 16, (3aR,13R,21aS)-7-fluoro-13-methyl-2,3,3a,11,12,13,14,21a-octahydro-1H,5H, 15H-18,20-(metheno)cyclopenta[5,6] [1,4]oxazino[4,3-e]pyrazolo[3,4-h]pyrido [2,3-b][1,5,7,11]oxatriazacyclotetradecin-15-one]",16.6,5000,41.2,340,45.5,47.4
"O=C1NC[C@H](F)COc2ncc(F)cc2CN2c3nc4c1cnn4cc3O[C@H]1CCC[C@H]12 [Compound 38, (3aR,12S,21aS)-7,12-difluoro-2,3,3a,11,12,13,21a-octahydro-1H,5H, 15H-18,20-(metheno)cyclopenta[5,6][1,4] oxazino[4,3-e]pyrazolo[3,4-h]pyrido[2,3-b][1,5,7,11]oxatriazacyclotetradecin-15-one]",< 0.2,349,0.3,82.1,< 0.2,< 0.2
"O=C1NCC(F)(F)COc2ncc(F)cc2CN2c3nc4c1cnn4cc3O[C@H]1CCC[C@H]12 [Compound 40, (3aR,21aS)-7,12,12-trifluoro-2,3,3a,11,12,13,14,21a-octahydro-1H,5H, 15H-18,20-(metheno)cyclopenta[5,6][1,4] oxazino[4,3-e]pyrazolo[3,4-h]pyrido[2,3-b][1,5,7,11]oxatriazacyclotetradecin-15-one]",< 0.2,5000,1.8,1950,< 0.2,19.1
"C[C@@H]1CNC(=O)c2cnn3cc4c(nc23)N(Cc2cc(F)cnc2O1)[C@H]1CCC[C@H]1O4 [Compound 44, (3aS,11R,20aR)-7-fluoro-11-methyl-2,3 3a,12,13,20a-hexahydro-1H,5H-17,19-(metheno)cyclopenta[5,6][1,4] oxazino[3,4-i]pyrazolo[4,3-f]pyrido[3,2-l][1,4,8,10]oxatriazacyclotridecin-14(11H)-one]",> 10000,> 10000,> 10000,> 10000,668,> 10000
"O=C1NCC(O)(O)COc2ncc(F)cc2CN2c3nc4c1cnn4cc3O[C@H]1CCC[C@H]12 [Compound 33, (3aR,21aS)-7-fluoro-12,12-dihydroxy-2,3,3a,11,12,13,14,21a-octahydro-1H,5H,15H-18,20-(metheno)cyclopenta[5,6][1,4]oxazino[4,3-e]pyrazolo[3,4-h]pyrido[2,3-b][1,5,7,11]oxatriazacyclotetradecin-15-one]",198,4000,1200,2000,124,356
"C[C@@H]1COc2ncc(F)cc2CN2c3nc4c(cnn4cc3O[C@H]3CCC[C@H]32)C(=O)N1 [Compound 6, (3aR,12R,20aS)-7-fluoro-12-methyl-2,3,3a,12,13,20a-hexahydro-1H,5H-17-19-(metheno)cyclopenta[5,6][1,4] oxazino[3,4-i]pyrazolo[4,3-f]pyrido[3,2-l][1,4,8,10]oxatriazacyclotridecin-14(11H)-one]",0.2,573,3,146,0.2,1

# Further lines, with some results ahead:
GI50 (BaF3 KIF5B-RET) [nM],GI50 (BaF3 KIF5B-RET_V804M) [nM],GI50 (BaF3 KIF5B-RET_G810R) [nM],GI50 (BaF3 EML4-ALK) [nM],Structure (SMILES),IC50 (KM12 cell (TPM3-TRKA)) [nM],IC50 (KG-1) [nM]
7.1,1530,24.4,77.2,"O=C1NC2(CC2)COc2ncc(F)cc2CN2c3nc4c1cnn4cc3O[C@H]1CCC[C@H]12 [Compound 18, (3a′R,20a′S)-7′-fluoro-1′H,2′H,3′H,3a′H, 5′H,11′H,13′H,14′H,20a′H-spiro[cyclopropane-1,12′-[10,20]dioxa[4,9,13,16,17,18][hexaaza [17,19](metheno)cyclopenta[5,6][1,4]oxazino[3,4-i]pyrazolo[4,3-f]pyrido [3,2-l][1,4,8,10]oxatriazacyclotridecin]-14′-one]",11.3,16.9
0.3,1380,134,901,"CC1CNC(=O)c2cnn3cc4c(nc23)N(Cc2cc(F)cnc2OC1)[C@@H]1CCC[C@@H]1O4 (stereo partly drawn) [Compound 29, (3aR,21aS)-7-fluoro-12-methyl-2,3,3a,11,12,13,14,21a-octahydro-1H,5H,15H-18,20-(metheno)cyclopenta[5,6][1,4]oxazino[4,3-e]pyrazolo[3,4-h]pyrido[2,3-b][1,5,7,11]oxatriazacyclotetradecin-15-one]",1.7,7.9
< 0.2,469,3.6,139,"O=C1N[C@H](C(F)F)COc2ncc(F)cc2CN2c3nc4c1cnn4cc3O[C@H]1CCC[C@H]12 [Compound 47, (3aR,12S,20aS)-12-(difluoromethyl)-7-fluoro-2,3,3a,12,13,20a-hexahydro-1H,5H-17,19-(metheno)cyclopenta[5,6][1,4] oxazino[3,4-i]pyrazolo[4,3-f]pyrido[3,2-l][1,4,8,10]oxatriazacyclotridecin-14(11H)-one]",< 0.2,3.5
< 0.2,2000,63,1000,"CC1(C)CNC(=O)c2cnn3cc4c(nc23)N(Cc2cc(F)cnc2OC1)[C@@H]1CCC[C@@H]1O4 [Compound 27, (3aR,21aS)-7-fluoro-12,12-dimethyl-2,3,3a,11,12,13,14,21a-octahydro-1H,5H,15H-18,20-(metheno)cyclopenta[5,6][1,4]oxazino[4,3-e]pyrazolo[3,4-h]pyrido[2,3-b][1,5,7,11]oxatriazacyclotetradecin-15-one]",0.3,0.3
< 0.2,1760,128,157,"O=C1NC2(CCC2)COc2ncc(F)cc2CN2c3nc4c1cnn4cc3O[C@H]1CCC[C@H]12 [Compound 22, (3a′R,20a′S)-7′-fluoro-1′H,2′H,3′H,3a′H, 5′H,11′H,13′H,14′H,20a′H-spiro[cyclobutane-1,12′-[10,20]dioxa[4,9,13,16,17,18][hexaaza [17,19](metheno)cyclopenta[5,6][1,4]oxazino[3,4-i]pyrazolo[4,3-f]pyrido [3,2-l][1,4,8,10]oxatriazacyclotridecin]-14′-one]",49.3,156
